Data set [1] concerns the target T1, NTS1R (Homo sapiens, UniProt P30989). Put plainly: Fluorescence anisotropy (FA) association and dissociation kinetics at hNTS1R-displaying BBVs. Format: binding. Also noted: NlucC (C-terminal fragment of nanoluciferase, 11 amino acids) (C); made in house; host or cells: Sf9 insect cells, baculovirus (pIMACE-CMVintP10-hNTS1R-Nluc, DH10MultiBac); budded baculovirus particles. Conditions: NTS1R-BBV, 27 °C; for kon: from model fit, read-out: kon [min^–1 nM^–1] (converted); for koff: read-out: koff [min^–1] (converted). The procedure: (§1) FA-based NTS1R binding studies with 13 and 18 were performed at hNTS1R displaying budded baculovirus particles (termed BBVs below), which were obtained from Sf9 insect cells following the procedure reported for the preparation of neuropeptide Y Y1R displaying BBVs.[61] The obtained viruses were collected by centrifugation at 1600g for 10 min, and the virus titer was determined with an image-based cell-size estimation assay as described elsewhere.[62] The viruses were amplified using a multiplicity of infection (MOI) between 0.01 and 0.1 until a high-titer baculovirus stock (virus concentration of at least 1.0 × 10^8 infectious viral particles/mL) was acquired. To produce BBV preparations with a high receptor density, Sf9 cells with a density of 1.9 × 10^6 cells/mL were infected with an MOI of 3 and the BBVs were collected by centrifugation 63 h after the infection, when the cell viability was <30%. The BBVs were concentrated 40-fold by centrifugation at 48,000g at 4 °C for 40 min, washed with ice-cold DPBS (without supplements), resuspended, and homogenized using a 0.3 mm diameter needle (Sterican, B. Braun, Melsungen, Germany). Aliquots of the BBV preparations were stored at −90 °C until use.
FA measurements were performed with a Synergy NEO multimode plate reader (BioTek, Winooski, VT) and black, half area, flat bottom polystyrene nonbinding surface (NBS) 96-well plates (product no. 3993; Corning, Corning, NY). Polarizing excitation (530 ± 15 nm) and dual emission (590 ± 17.5 nm) filters with a dichroic mirror were used, allowing the simultaneous detection of parallelly and perpendicularly polarized fluorescence emission after polarizing beam splitter. All measurements were performed at 27 °C. For all experiments, DPBS2 was used as binding buffer. […]
25 μL of a 4-fold concentrated (compared to the final concentration) solution of 13 or 18 (final concentrations were 0.3 and 1 nM for both ligands) and 25 μL of DPBS2 were premixed in the 96-well plate followed by the addition of 50 μL of BBV suspension (used in six different concentrations; each was combined with the two ligand concentrations) to start the association. […] This enabled shorter time intervals between the read cycles (the measuring time for one cycle, comprising 4 wells, was 6 s; 100 read cycles were carried out). […] Immediately after the addition of SR142948, FA signals were measured for 10 min (within this time period, the dissociation was complete and a plateau was reached, respectively). Equilibrium binding was analyzed using the FA signals at 10 min. Fluorescence intensities were processed as previously reported[61] using the in-house developed software Aparecium 2.0.20 (http://www.gpcr.ut.ee/software.html).[63] […]
Background: Fluorescence polarisation rises when a labelled molecule tumbles more slowly, as on binding a larger partner.

Data set [2] concerns the target T1, NTS1R. Put plainly: Fluorescence anisotropy (FA) equilibrium saturation binding at hNTS1R-displaying BBVs. The settings on record: NTS1R-BBV, 27 °C. Also noted: NlucC (C-terminal fragment of nanoluciferase, 11 amino acids) (C); made in house; host or cells: Sf9 insect cells, baculovirus (pIMACE-CMVintP10-hNTS1R-Nluc, DH10MultiBac); budded baculovirus particles. The procedure: as §1, with “The BBVs were concentrated 40-fold by centrifugation at 48,000g at 4 °C for 40 min, washed with ice-cold DPBS (without supplements), resuspended, and homogenized using a 0.3 mm diameter needle (Sterican, B. Braun, Melsungen, Germany). Aliquots of the BBV preparations were stored at −90 °C until use.” left out
FA measurements were performed with a Synergy NEO multimode plate reader (BioTek, Winooski, VT) and black, half area, flat bottom polystyrene nonbinding surface (NBS) 96-well plates (product no. 3993; Corning, Corning, NY). Polarizing excitation (530 ± 15 nm) and dual emission (590 ± 17.5 nm) filters with a dichroic mirror were used, allowing the simultaneous detection of parallelly and perpendicularly polarized fluorescence emission after polarizing beam splitter. […]

The nature of data set [3]: Recovery from human plasma/PBS 1:2 v/v. The settings on record: for recovery compd. (%): human plasma/PBS 1:2 v/v. Also noted: recovery compd. (%): dose or concentration left out as unconfirmed. Format: in vitro ADME. The procedure: The proteolytic stabilities of 13 and 18 were investigated in human blood plasma/PBS (136.9 mM NaCl, 2.68 mM KCl, 5.62 mM Na2HPO4, 1.09 mM NaH2PO4, and 1.47 mM KH2PO4, pH 7.4) 1:2 v/v according to a described procedure[38] with the following modifications: 5 mM stock solutions in EtOH/10 mM aqueous HCl 1:1 v/v were used for the addition of the peptides to plasma/PBS 1:2 v/v. As the RP-HPLC purity of 1-methyl-D-Trp, used as internal standard (IS), was <95%, the compound was purified by preparative HPLC to give a purity of >99%. […] Samples were analyzed using the same RP-HPLC system and conditions as described under Analytical HPLC with the following gradient: 0–6 min: acetonitrile/0.04% aqueous TFA 10:90–21:79, 6–12 min: 21:79–40:60, 12–13 min: 40:60–95:5, 13–16 min: 95:5 (isocratic). Data analysis was based on UV detection at 220 nm. Reference samples, representing 100% recovery, were prepared in quadruplicate. Recovery ratios were obtained by dividing the recovery of the peptide by the recovery of IS for each individual sample (n = 4). The obtained recoveries and the recovery ratios are summarized in Table S2, Supporting Information.

Where “and” joins values, the source holds several entries; their conditions need not be identical. Identical values can stand only once.

In general, kon refers to the rate constant with which the complex forms. As usually defined, the koff is the first-order rate constant of dissociation. What is called Kd is the free concentration of one partner at which half of the binding sites on the other are occupied at equilibrium, for simple one-to-one binding.

T1 sequence (P30989 whole entry, the tested form may be a part): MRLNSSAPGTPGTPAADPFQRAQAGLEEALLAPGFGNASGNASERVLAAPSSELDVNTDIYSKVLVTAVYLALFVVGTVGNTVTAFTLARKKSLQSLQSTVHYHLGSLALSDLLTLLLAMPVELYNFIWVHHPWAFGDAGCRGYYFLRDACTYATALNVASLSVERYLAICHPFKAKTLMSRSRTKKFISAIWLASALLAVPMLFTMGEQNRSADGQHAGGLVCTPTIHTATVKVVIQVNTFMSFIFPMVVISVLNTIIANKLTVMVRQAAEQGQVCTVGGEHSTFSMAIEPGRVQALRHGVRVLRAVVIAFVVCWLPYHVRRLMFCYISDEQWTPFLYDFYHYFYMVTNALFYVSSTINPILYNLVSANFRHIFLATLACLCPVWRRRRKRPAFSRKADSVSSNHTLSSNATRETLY

For the molecule `CCC(=O)NCCCCNC(=O)N=C(N)NCCC[C@H](NC(=O)[C@@H]1CCCN1C(=O)[C@@H](NC(=O)CCc1cn(CCCNC(=O)c2ccc(-c3c4ccc(=[N+](C)C)cc-4oc4cc(N(C)C)ccc34)c(C(=O)[O-])c2)nn1)C1CCNCC1)C(=O)N[C@@H](CCCNC(=N)N)C(=O)N1CCC[C@H]1C(=O)N[C@@H](Cc1ccc(O)cc1)C(=O)N[C@H](C(=O)N[C@@H](CC(C)C)C(=O)O)[C@@H](C)CC` [Compound 13, N^α-(3-(1-N-((1-Carboxylato-2-(6-(dimethylamino)-3-(dimethyliminio)-3H-xanthen-9-yl)phen-5-yl)1-oxomethyl)aminoprop-3-yl-1H-1,2,3-triazol-4-yl)propanoyl)-2-(piperidin-4-yl)-Gly-Pro-N^ω-[(4-(N-propanoyl)aminobutyl)aminocarbonyl]Arg-Arg-Pro-Tyr-Ile-Leu Tris(hydrotrifluoroacetate)], at NTS1R [1], the kon is 1.67e+07 M⁻¹ s⁻¹ and the off-rate constant (koff) is 0.0102 s⁻¹. On NTS1R [2], the Kd came to 1.3 ± 0.1 nM. In data set [3] (individual experiments), the “recovery compd. (%)” value was 75% and 102% and 104%.

Regarding `CCC(=O)NCCCCNC(=O)NC(=N)NCCC[C@H](NC(=O)[C@@H]1CCCN1C(=O)[C@@H](NC(=O)CCc1cn(CCCNC(=O)CCC#Cc2ccc3c(c2)C(C)(C)C2=C4C=C5C6=[N+](CCC5OC4CCN23)c2ccc(S(=O)(=O)[O-])cc2C6(C)C)nn1)C1CCNCC1)C(=O)N[C@@H](CCCNC(=N)N)C(=O)N1CCC[C@H]1C(=O)N[C@H](C(=O)N[C@H](C(=O)N[C@@H](CC(C)C)C(=O)O)[C@@H](C)CC)C(C)(C)c1ccc(O)cc1` (stereo partly drawn) [Compound 18, N^α-(3-(N-(1-(8-Sulfonato-5,5,27,27-tetramethyl-16-oxa-20-aza-12-azoniaheptacyclo[15.11.0.03,15.04,12.06,11.020,28.021,26]octacosa-1(28),2,4(12),6(11),7,9,21(26),22,24-nonaen-24-yl)-5-oxopentyn-5-yl)-1-aminoprop-3-yl-1H-1,2,3-triazol-4-yl)propanoyl)-2-(piperidin-4-yl)-Gly-Pro-N^ω-[(4-(N-propanoyl)aminobutyl)aminocarbonyl]Arg-Arg-Pro-β,β-dimethyl-L-Tyr-Ile-Leu Tris(hydrotrifluoroacetate)], on NTS1R [1], the kon is 2.33e+07 M⁻¹ s⁻¹ and the koff was 0.00933 s⁻¹. Further, the dissociation constant Kd at NTS1R [2] is 1.5 ± 0.1 nM. In addition, the “mean recovery ratio ± SEM” value in data set [3] (four independent experiments) is on record as 0.99 ± 0.02. In addition, the “recovery compd. (%)” value in data set [3] (individual experiments) is 98% and 72% and 65% and 70%. Moreover, the “ratio of peptide recovery over recovery of internal standard” value in data set [3] (individual experiments, internal standard 1-methyl-D-tryptophan) is 1.01 (2×) and 1.03 and 0.91.

(Values after publication PMC11440508, “Dually Labeled Neurotensin NTS1R Ligands for Probing Radiochemical and Fluorescence-Based Binding Assays” (Journal of Medicinal Chemistry, 2024).)
